According to ChEMBL document CHEMBL1201862, “PubChem BioAssay data set” (2004):
The source made the active and inactive calls.

Columns and labels:
[1] = biological target: T1, Endoribonuclease toxin MazF (Escherichia coli K-12, UniProt P0AE70); test: substrate-only fluorescence increase artefacts – biochemical, single-stranded RNase substrate, counter-screen for MazEF activator project, dose response (AID 588502); format: functional
T1 sequence (P0AE70 whole entry): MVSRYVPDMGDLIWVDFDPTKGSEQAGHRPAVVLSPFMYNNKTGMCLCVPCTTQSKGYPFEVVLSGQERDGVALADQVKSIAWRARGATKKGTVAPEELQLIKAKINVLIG

[2] = biological target: T1, Endoribonuclease toxin MazF; test: activation of MazEF endoribonuclease cleavage – biochemical, fluorescence, single-stranded RNA substrate, uHTS hits, dose response (AID 588481); format: functional
Albumin = Albumin (Bos taurus, UniProt P02769); test: Counterscreen for inhibitors of T-cell receptor (TCR)-CD3 interaction: Fluorescence-based biochemical high throughput dose response assay to identify inhibitors of T-cell receptor (TCR)-CD3 interaction using a TAMRA-labeled BSA probe.; format: functional
Chain of Albumin (P02769 whole entry): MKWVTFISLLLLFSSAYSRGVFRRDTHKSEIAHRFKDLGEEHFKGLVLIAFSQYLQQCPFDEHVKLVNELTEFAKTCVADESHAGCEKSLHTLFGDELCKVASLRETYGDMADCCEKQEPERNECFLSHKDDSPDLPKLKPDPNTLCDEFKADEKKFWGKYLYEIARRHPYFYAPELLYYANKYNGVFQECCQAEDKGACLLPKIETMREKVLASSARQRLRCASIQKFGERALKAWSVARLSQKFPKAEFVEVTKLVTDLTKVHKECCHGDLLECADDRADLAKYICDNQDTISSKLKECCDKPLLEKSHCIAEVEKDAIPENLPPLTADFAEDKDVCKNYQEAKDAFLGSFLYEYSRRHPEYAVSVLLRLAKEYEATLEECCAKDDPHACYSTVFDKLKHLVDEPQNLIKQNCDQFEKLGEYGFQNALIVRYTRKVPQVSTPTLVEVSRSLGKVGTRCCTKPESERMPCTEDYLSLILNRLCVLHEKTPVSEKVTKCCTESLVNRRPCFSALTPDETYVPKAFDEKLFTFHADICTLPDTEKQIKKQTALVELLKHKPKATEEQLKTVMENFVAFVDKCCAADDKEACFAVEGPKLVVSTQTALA

Steroidogenic factor 1 = Steroidogenic factor 1 (Homo sapiens, UniProt Q13285); test: Counterscreen for inverse agonists of the liver receptor homolog-1 (LRH-1; NR5A2): Luminescence-based cell-based high throughput dose response assay to identify inverse agonists of the Steroidogenic Factor 1 Nuclear Receptor (SF1; NR5A1).; format: functional
Chain of Steroidogenic factor 1 (Q13285 whole entry): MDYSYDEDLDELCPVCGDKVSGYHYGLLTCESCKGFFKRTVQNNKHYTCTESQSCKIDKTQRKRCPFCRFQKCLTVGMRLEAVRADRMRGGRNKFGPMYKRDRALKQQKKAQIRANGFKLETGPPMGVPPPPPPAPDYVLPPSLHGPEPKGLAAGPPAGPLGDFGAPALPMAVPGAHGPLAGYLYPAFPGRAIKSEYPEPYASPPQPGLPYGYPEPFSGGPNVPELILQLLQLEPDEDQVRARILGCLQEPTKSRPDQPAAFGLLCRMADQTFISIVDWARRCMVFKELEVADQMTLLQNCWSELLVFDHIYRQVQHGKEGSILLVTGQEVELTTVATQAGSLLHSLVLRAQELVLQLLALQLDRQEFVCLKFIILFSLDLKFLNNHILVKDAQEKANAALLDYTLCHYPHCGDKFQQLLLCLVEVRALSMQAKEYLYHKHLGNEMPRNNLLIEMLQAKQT

[3] = nonselective StAR promoter luciferase inhibitors – cell-based, luminescence, luciferase reporter, counter-screen for LRH-1 inverse agonist project, dose response (AID 651969); format: functional
[4] = biological target: Nuclear receptor subfamily 5 group A member 2 (Homo sapiens, UniProt O00482); format: functional, cell-based;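 further: HEK293T cells transfected with LRH-1 and a StAR promoter luciferase reporter; potency for inhibitors that lower LRH-1 driven reporter light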
Chain of Nuclear receptor subfamily 5 group A member 2 (O00482 whole entry): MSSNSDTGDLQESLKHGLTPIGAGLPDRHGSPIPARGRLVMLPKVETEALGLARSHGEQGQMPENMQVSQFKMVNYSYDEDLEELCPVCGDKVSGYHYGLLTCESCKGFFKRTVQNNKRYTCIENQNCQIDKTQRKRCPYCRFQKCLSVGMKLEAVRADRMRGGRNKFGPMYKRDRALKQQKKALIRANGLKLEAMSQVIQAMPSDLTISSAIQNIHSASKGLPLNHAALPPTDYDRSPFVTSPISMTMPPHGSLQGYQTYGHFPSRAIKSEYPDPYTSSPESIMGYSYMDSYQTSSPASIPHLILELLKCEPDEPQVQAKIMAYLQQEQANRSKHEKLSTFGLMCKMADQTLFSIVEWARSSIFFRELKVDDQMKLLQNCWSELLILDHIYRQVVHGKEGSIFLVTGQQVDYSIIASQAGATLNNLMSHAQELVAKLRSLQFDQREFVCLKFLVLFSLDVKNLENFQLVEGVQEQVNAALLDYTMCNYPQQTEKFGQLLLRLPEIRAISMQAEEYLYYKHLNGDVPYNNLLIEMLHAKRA

cells = format: functional
HEK293 [5] = test: membrane integrity loss in HEK cells – cell-based, fluorescence, cytotoxicity control for IDE activator project, dose response (AID 588440); format: functional; conditions: Homo sapiens;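 further: cytotoxicity by LDH release measuring loss of membrane integrity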
Insulin-degrading enzyme [6] = biological target: T2, Insulin-degrading enzyme (Homo sapiens, UniProt P14735); test: cellular IDE activation of Abeta substrate cleavage – fluorescence polarization, HEK cells, dose response (AID 588439); format: functional, cell-based
T2 sequence (P14735 whole entry): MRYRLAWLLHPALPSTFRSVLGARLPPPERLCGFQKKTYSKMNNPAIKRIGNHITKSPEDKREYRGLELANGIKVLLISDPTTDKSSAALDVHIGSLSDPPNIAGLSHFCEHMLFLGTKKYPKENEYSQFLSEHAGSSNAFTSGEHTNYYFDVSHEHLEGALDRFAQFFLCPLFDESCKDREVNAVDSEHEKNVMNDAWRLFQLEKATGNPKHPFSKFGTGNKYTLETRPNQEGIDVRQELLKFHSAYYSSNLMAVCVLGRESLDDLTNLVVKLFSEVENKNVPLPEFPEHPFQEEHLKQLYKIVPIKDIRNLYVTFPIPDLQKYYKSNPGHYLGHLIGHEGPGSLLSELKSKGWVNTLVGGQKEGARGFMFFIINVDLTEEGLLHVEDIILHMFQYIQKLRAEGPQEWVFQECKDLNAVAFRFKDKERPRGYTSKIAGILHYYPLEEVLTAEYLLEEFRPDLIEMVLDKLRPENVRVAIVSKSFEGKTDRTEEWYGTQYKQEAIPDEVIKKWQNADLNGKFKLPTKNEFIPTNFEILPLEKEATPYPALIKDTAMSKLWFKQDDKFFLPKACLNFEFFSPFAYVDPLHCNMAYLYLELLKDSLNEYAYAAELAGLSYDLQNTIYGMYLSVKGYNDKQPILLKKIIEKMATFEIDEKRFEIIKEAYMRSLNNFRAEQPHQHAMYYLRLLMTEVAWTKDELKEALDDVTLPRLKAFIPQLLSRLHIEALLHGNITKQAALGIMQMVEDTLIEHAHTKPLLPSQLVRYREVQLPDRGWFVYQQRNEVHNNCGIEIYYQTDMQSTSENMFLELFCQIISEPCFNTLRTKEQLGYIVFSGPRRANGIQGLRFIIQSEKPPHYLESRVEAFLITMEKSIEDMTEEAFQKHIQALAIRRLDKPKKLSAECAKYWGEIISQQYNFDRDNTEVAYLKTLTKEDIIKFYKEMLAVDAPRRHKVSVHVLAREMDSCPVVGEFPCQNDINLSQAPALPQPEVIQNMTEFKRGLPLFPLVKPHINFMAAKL

Insulin-degrading enzyme [7] = biological target: T2, Insulin-degrading enzyme; test: recombinant IDE activation, cell-free – biochemical, fluorescence polarization, counter-screen for IDE activator project, dose response (AID 588681)
HEK293 [8] = test: optical interference in Abeta FP readout, dose response, artefact control for IDE activator project, biochemical, fluorescence polarization (AID 588442); format: functional, cell-based; conditions: Homo sapiens
[9] = biological target: T3, Sentrin-specific protease 1 (Homo sapiens, UniProt Q9P0U3); test: Dose response confirmation of small molecule inhibitors of the catalytic domain of the SUMO protease, SENP1 in a FRET assay.; format: functional; conditions: read-out: IC50_Mean
T3 sequence (Q9P0U3 whole entry): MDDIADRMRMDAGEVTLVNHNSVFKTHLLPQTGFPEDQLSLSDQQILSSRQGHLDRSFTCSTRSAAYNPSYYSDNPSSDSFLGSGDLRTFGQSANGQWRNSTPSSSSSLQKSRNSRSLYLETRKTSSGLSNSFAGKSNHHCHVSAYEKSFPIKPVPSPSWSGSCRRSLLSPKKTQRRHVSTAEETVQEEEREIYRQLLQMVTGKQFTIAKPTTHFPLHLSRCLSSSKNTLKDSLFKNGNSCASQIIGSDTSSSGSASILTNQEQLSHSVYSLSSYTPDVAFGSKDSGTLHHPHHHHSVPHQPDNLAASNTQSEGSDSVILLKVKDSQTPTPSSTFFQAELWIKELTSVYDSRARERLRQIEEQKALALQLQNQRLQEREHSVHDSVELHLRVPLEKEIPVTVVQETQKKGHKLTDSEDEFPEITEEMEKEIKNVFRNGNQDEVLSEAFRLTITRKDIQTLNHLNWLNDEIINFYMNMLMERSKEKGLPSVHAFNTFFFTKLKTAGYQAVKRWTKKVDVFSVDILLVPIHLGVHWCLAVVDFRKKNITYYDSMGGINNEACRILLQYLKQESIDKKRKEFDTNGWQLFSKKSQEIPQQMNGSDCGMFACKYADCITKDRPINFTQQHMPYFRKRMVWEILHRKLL

[10] = biological target: T3, Sentrin-specific protease 1; test: SENP1 catalytic domain blockers, concentration series – biochemical, kinetic FRET, dose response (AID 651697); format: functional; conditions: read-out: IC50_Mean
[11] = Counterscreen for inhibitors of Trypanosoma brucei methionyl tRNA synthetase (MetRS): Luminescence-based cell-based high throughput dose response assay to identify compounds that are cytotoxic to Jurkat human T lymphocyte cells.; format: functional
[12] = biological target: T4, Methionyl-tRNA synthetase, putative (Trypanosoma brucei brucei, UniProt Q38C91); format: functional, Trypanosoma brucei brucei strain 927/4 GUTat10.1
T4 sequence (Q38C91 whole entry): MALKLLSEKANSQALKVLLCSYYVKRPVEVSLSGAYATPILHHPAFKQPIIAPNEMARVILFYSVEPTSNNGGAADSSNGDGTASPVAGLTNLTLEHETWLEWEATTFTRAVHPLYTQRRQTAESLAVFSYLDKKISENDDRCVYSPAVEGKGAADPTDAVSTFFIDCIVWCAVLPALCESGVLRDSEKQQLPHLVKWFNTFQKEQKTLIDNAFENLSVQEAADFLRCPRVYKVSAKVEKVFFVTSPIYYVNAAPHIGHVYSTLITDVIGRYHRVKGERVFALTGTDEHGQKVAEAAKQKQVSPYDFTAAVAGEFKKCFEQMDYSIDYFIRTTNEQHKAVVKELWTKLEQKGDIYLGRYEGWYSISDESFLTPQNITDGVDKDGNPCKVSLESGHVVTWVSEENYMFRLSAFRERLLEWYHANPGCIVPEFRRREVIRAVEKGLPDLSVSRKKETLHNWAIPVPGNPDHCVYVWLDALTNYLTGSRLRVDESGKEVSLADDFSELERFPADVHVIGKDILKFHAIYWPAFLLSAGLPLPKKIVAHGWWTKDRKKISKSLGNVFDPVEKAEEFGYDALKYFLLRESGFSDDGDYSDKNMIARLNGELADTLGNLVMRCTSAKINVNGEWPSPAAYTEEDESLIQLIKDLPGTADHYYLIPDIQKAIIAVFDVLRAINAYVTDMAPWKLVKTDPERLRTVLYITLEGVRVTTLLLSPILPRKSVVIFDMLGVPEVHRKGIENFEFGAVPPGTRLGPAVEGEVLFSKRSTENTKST

[13] = biological target: T4, Methionyl-tRNA synthetase, putative; format: functional, Trypanosoma brucei brucei strain 927/4 GUTat10.1; remark: listed apart in the source

Nc1c(C(=O)NC2CCCC2)sc2nc(-c3cccs3)ccc12
EC50 [1]: 54 µM (inactive)
EC50 [2]: > 99 µM (inactive)

COc1ccc(C(=O)NNC(=S)NC(=O)c2cccnc2)cc1
IC50 (Albumin): > 94.1 µM (inactive)

CCCCn1c(O)c(N=Nc2ccccc2O)c2ccccc21
EC50 [1]: 69.5 µM (inactive)
EC50 [2]: 44.9 µM (inactive)

CCCc1cc(=O)oc2cc(OCC(=O)NCc3ccccn3)ccc12
IC50 (Steroidogenic factor 1): 1.97 µM (active)
IC50 [3]: 35.9 µM (inactive)
IC50 [4]: 35.9 µM (inactive)

CC(=O)n1cc(/C=C2/N=C(c3ccccc3)OC2=O)c2ccccc21
EC50 [1]: > 99 µM (inactive)
IC50 (cells): 4.63 µM (active)
EC50 [2]: > 99 µM (inactive)

O=C(CSc1nnc(CNC(=O)c2c(F)cccc2F)o1)Nc1ccc2c(c1)OCCO2
IC50 (Steroidogenic factor 1): 31 µM (inactive)
IC50 [3]: 35.9 µM (inactive)
IC50 [4]: 35.9 µM (inactive)

O=C1C=C(c2cccc3c2sc2ccccc23)C[C@@H](c2ccc(Cl)cc2)C1
IC50 (HEK293 [5]): > 89.2 µM (inactive)
EC50 (Insulin-degrading enzyme [6]): > 54.7 µM (inactive)
EC50 (Insulin-degrading enzyme [7]): > 54.7 µM (inactive)
EC50 (HEK293 [8]): > 54.7 µM (inactive)

Cc1cccc(C)c1-n1nnnc1-c1nc2cc3ccccc3cc2nc1O
IC50 [9]: 1.93 µM (active)
IC50 [10]: 7.1 µM (active)

COC(=O)c1ccc(-c2nc(O)c(C)s2)cc1
IC50 [9]: 8.08 µM (active)
IC50 [10]: 7.31 µM (active)

O=C(CN1CCS/C1=N/Cc1ccccc1)c1ccc(Cl)c(Cl)c1
IC50 [11]: 48.2 µM (inactive)
IC50 [12]: 2.67 µM (active)
IC50 [13]: 3.92 µM (active)
